From patent publication US20240269115A1, “PYRAZOLONE COMPOUNDS FOR USE IN DEGENERATIVE RETINAL DISEASES” (FLONEXT S.R.L., priority 2021, published 2024) come the findings set out here.

Assay [1] concerns NalO3-induced increase in retinal 4-hydroxynonenal (4-HNE) in macular degeneration model mice. The assay can be described thus: Retinal oxidative stress by 4-HNE immunofluorescence in the NalO3 mouse model of macular degeneration. The format is in vivo, C57BL/6J male mice. The note with it: eye drops 5 μl 3 times a day, days 1-3 (dipyrone 16.65 μg, propyphenazone 11.5 μg, indomethacin 17.85 μg); NalO3 20 mg/kg retro-orbital vein; retina collected day 4; mean±SEM. How it is done: (§1) To create a valid model of macular degeneration, systemic administration (via the retro-orbital vein) of NalO3 was carried out in C57BL/6J male mice aged 5-8 weeks and weighing 22-25 g supplied by the Charles River company (Milan, Italy). A total of 30 mice were used to carry out the experiments described below. The animals were kept in a temperature and humidity-controlled environment (12-hour dark/light cycle, free access to food and water).
(§2) As described above, the mouse model obtained by systemic administration (via the retro-orbital vein) of NalO3 is a model of macular degeneration. In fact, 3 days after administration, NalO3 induced in mice persistent retinal damage with characteristics similar to those observed in age-related macular degeneration in humans.
(§3) In order to evaluate the efficacy of dipyrone and propyphenazone, preferred compounds belonging to the pyrazolone class, in reducing and treating the retinal damage typical of macular degeneration, a model of macular degeneration was developed with an experiment on 5 groups of mice. The mice were administered dipyrone, propyphenazone, indomethacin or their vehicle, locally via eye drops.
(§4) In particular, a group of 6 mice (used as a control) were given vehicle (V1) (NaCl, 0.9%) of NalO3 (1 ml/kg) 60 minutes before the injection into the retro-orbital vein and subsequently given eye drops (5 μl) containing the vehicle (V2) (4% DMSO, 4% Tween 80 in 0.9% NaCl) of the drugs 3 times a day by instillation. […]
The level of oxidative stress was also assessed throughout the thickness of the retina by measuring the immunofluorescence intensity for the reactive carbonyl species, 4-hydroxynonenal (4-HNE), a final indicator of oxidative stress.
Levels of 4-HNE were quantified using a primary antibody (#ab48506, monoclonal mouse [HNEJ-2], 1:40, Abcam, Cambridge, UK) to which a second antibody (fluorophore-labelled, Alexa Fluor 594, #A A32742, Thermo Fisher Scientific) binds in the 5 groups of mice treated with V2/V1, V2/NalO3, dipyrone/NalO3, propyphenazone/NalO3 and indomethacin/NalO3. […]

The subject of assay [2] is NalO3-induced damage of the RPE layer in macular degeneration model mice. The assay can be described thus: Retinal pigment epithelium damage by RPE65 immunofluorescence in the NalO3 mouse model of macular degeneration. The note with it: eye drops 5 μl 3 times a day, days 1-3 (dipyrone 16.65 μg, propyphenazone 11.5 μg, indomethacin 17.85 μg); NalO3 20 mg/kg retro-orbital vein; retina collected day 4; mean±SEM. The format is in vivo, C57BL/6J male mice. The protocol:
as §1, §2, §3, §4
Damage to the RPE (retinal pigmented epithelium) was assessed by direct immunofluorescence. […]
The staining intensity of the RPE layer was quantified using a primary antibody (RPE65, #ab13826, mouse monoclonal, 1:100, Abcam, Cambridge, UK) to which a second antibody (fluorophore-labelled, Alexa Fluor 488, #A28175, Thermo Fisher Scientific) binds in the 5 groups of mice treated with V2/V1, V2/NalO3, dipyrone/NalO3, propyphenazone/NalO and indomethacin/NalO3. […]

As to `Cc1c(N(C)CS(=O)(=O)[O-])c(=O)n(-c2ccccc2)n1C.[Na+]` [dipyrone, Dipyrone], the “reduction in retinal 4-HNE levels (immunofluorescence) vs. V2” value (“reduction in retinal 4-HNE levels” for short) in assay [1] was determined as 69.7±11.8%. Also, in assay [2], the “reduction of the damage induced by NalO3 on the RPE layer (RPE65 staining intensity) compared to V2” value (from here on “reduction of the damage induced by NalO3”) amounted to 87.8±7.8%.

As to `COc1ccc2c(c1)c(CC(=O)O)c(C)n2C(=O)c1ccc(Cl)cc1` [indomethacin, Indomethacin], the “reduction in retinal 4-HNE levels” value in assay [1] was 17.5±10.5%. For the same molecule, the “reduction of the damage induced by NalO3” value in assay [2] came out at 5.7±14.9%.

In the case of `Cc1c(C(C)C)c(=O)n(-c2ccccc2)n1C` [propyphenazone, Propyphenazone], the “reduction in retinal 4-HNE levels” value in assay [1] came out at 81.3±7.0%. Further, in assay [2], the “reduction of the damage induced by NalO3” value was found to be 99.2±23.0%.
